Drawing on PubChem BioAssay (NCI), this text covers TGI and GI50 for eight compounds.

Where “and” joins values, the source holds several entries; their conditions need not be identical. Equal values may be shown once.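 Grown in 96-well plates, cells were treated for 48 hours with each compound at five concentrations. Insufficient inhibition: endpoint recorded as highest concentration tested. GI50 = concentration required for 50% inhibition of growth. TGI: concentration producing complete growth inhibition.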 Some results are limits rather than exact numbers.

What all share (experiment): inhibition of tumour cell growth, NCI panel, 48 h
Test [1] concerns DU-145 prostate.
Test [2] concerns HOP-92 NSCLC.
Test [3] concerns HT29 colon.
Test [4] has as its system KM12 colon.
Test [5] concerns LOX IMVI melanoma.
For test [6], the system named is NCI-H23 lung.
The test system of test [7] is OVCAR-3 ovarian.
Test [8] has as its system OVCAR-8 ovarian.
Test [9] deals with SF-295 CNS.
The test system of test [10] is SW-620 colon.

On to `COc1ccc(/C(C)=N/OC(=O)c2c(-c3ccccc3Cl)noc2C)cc1CN1CCOCC1`, for which the TGI is over 100 µM in test [1]; 91.8 µM in test [2]; 36.9 µM in test [3]; 70.5 µM in test [4]; 28.1 µM in test [5]; over 100 µM in test [6]. Also, the TGI in test [7] was 68.4 µM; in [8], over 100 µM; in test [9], 32.8 µM; in test [10], over 100 µM.

Regarding `NCc1nnn(Cc2ccccc2)c1N`, the TGI in test [1], in test [2], in test [3], in test [4], in test [5] and in test [6] was over 100 µM each time. Moreover, the TGI in test [7], in [8], in test [9] and in test [10] was over 100 µM throughout.

For the compound `COc1cc(/C=C2\COc3ccc(O)c(O)c3C2=O)cc(OC)c1`, the GI50 in [1] is 1.71 µM; in test [2], 1.96 µM; in [3] it was 2.78 µM; in test [4] it was 1.54 µM; in test [5], 1.28 µM; in [6], 2.36 µM. Also, the GI50 is 0.596 µM in [7], 0.944 µM in test [8], 3.01 µM in [9] and 1.22 µM in [10]. Further, the TGI is 4.26 µM in test [1]; 6.08 µM in test [2]; 8.39 µM in [3]; 3.58 µM in test [4]; 2.67 µM in test [5]; 7.02 µM in test [6]. Also, the TGI was 1.92 µM in [7], 18.3 µM in [8], 9.09 µM in test [9] and 4 µM in [10].

`COC1=CC(c2ccc[nH]2)=N/C1=C\c1[nH]c(C)c(C(=O)CCCCC(=O)Nc2ccccc2)c1C`: the GI50 was 1.2 µM in test [1]; 1.4 µM in test [2]; 0.693 µM in [3]; 1.03 µM in [4]; 1.13 µM in test [5]; 1.87 µM in [6]. Besides, the GI50 is 1.21 µM in test [7], 2.02 µM in [8], 6.11 µM in test [9] and 1.02 µM in test [10]. Also, the TGI in [1] was 2.5 µM; in test [2], 3.37 µM; in test [3], 2.52 µM; in test [4], 2.3 µM; in test [5], 2.34 µM; in [6], 4.8 µM. The TGI in [7] is 2.51 µM; in [8], 4.82 µM; in test [9], 29.2 µM; in test [10], 2.34 µM.

As to `COC(=O)C1=C(C(=O)OC)C23C=C(C)C1C2=C(C)C1(CC1)[C@@](C)(O)C3=O` (stereo partly drawn), the GI50 in test [1] is 0.197 µM; in test [2] it was 0.31 µM; in test [3] it was 0.337 µM; in [4], 0.868 µM; in [5], 0.358 µM; in test [6], 0.17 µM. In addition, the GI50 is 0.336 µM in test [7], 0.359 µM in test [8], 0.282 µM in [9] and 9.14 µM in test [10]. The TGI in test [1] is over 100 µM; in test [2], 1.53 µM; in test [3], 16.9 µM; in test [4] it was 11 µM; in test [5], 2.89 µM; in test [6], 0.851 µM. The TGI in test [7] is 2.12 µM; in [8] it was over 24.6 µM; in [10], 30.2 µM.

In the case of `CCCN(CCC)c1ccc(/C=N/NC(=O)c2cccnc2)c(Cl)c1`, the GI50 was 17.8 µM in test [1]; 8.95 µM in test [2]; 4.71 µM in [3]; 7.19 µM in [4]; 11.2 µM in [5]; 14.1 µM in [6]. Also, the GI50 in [7] was 2.93 µM; in test [8] it was 18.1 µM; in [9] it was 3.39 µM; in test [10], 8.07 µM. Moreover, the TGI in test [1] worked out at 49 µM; in [2] it was 25.2 µM; in test [3] it was 17.8 µM; in test [4], 25.7 µM; in test [5], 24.9 µM; in test [6], 45.4 µM. In addition, the TGI came to 9.29 µM in test [7], 53.7 µM in test [8], 16.7 µM in test [9] and 28.6 µM in [10].

`Cc1ccc(C)c(-c2csc(Nc3ccc(C)c(C)c3)n2)c1`: the GI50 is over 100 µM in test [1]; 29 µM in [2]; over 100 µM in [3]; over 100 µM in test [4]; over 100 µM in test [5]; 65.7 µM in test [6]. Besides, the GI50 in test [7] is 66.3 µM; in [8], 74.7 µM; in [9], 57.9 µM; in test [10], over 100 µM. For the same compound, the TGI in test [1], in test [2], in [3], in test [4], in test [5] and in test [6] was over 100 µM each time. Besides, the TGI in [7], in test [8], in test [9] and in test [10] was over 100 µM throughout.

With `NC1=N/C(=C2/CCNC(=O)c3[nH]c(Br)cc32)C(=O)N1`, the TGI was over 100 µM in [1]; 63.8 µM and 81.5 µM in [2]; over 100 µM in test [3]; over 100 µM in test [4]; over 62.1 µM in test [5]; over 100 µM in [6]. Besides, the TGI in test [7] was 43 µM and 40.1 µM; in test [8], over 100 µM; in test [9], over 100 µM; in test [10], over 100 µM. In addition, the GI50 was 27.2 µM and 67.7 µM in test [3]; over 100 µM in test [4]; 4.29 µM and 10.7 µM in test [7]; 2.71 µM and 6.12 µM in test [10].
